Assay results published in ChEMBL document CHEMBL3046358, “Multiple Pro-197 substitutions in the acetolactate synthase of rigid ryegrass (Lolium rigidum) and their impact on chlorsulfuron activity and plant growth” (Crop Prot, 2012).

How the values were obtained:
Lolium rigidum [1] = test: Herbicidal activity against Lolium rigidum accession A12 assessed as fresh weight reduction applied at 1 times pre-emergence recommended rate applied in pots where terbufos had been incorporated into the soil relative to untreated control; assay type: functional; set-up: scale not given: the % may be the effect or the level left
Lolium rigidum [2] = test: Herbicidal activity against Lolium rigidum accession A08 assessed as emergence rate applied at 4 times pre-emergence recommended rate relative to untreated control; assay type: functional
Lolium rigidum [3] = test: Herbicidal activity against Lolium rigidum accession A06 assessed as emergence rate applied at 4 times pre-emergence recommended rate relative to untreated control; assay type: functional
[4] = target: T1, Acetolactate synthase (Lolium rigidum) (UniProt A7XBP7); test: Resistance index, ratio of I50 for acetolactate synthase Pro-197/Leu-197 mutant in Lolium rigidum accession A07 leaves extracts to I50 for acetolactate synthase in Lolium rigidum accession A01 leaves extracts
T1 sequence (whole entry): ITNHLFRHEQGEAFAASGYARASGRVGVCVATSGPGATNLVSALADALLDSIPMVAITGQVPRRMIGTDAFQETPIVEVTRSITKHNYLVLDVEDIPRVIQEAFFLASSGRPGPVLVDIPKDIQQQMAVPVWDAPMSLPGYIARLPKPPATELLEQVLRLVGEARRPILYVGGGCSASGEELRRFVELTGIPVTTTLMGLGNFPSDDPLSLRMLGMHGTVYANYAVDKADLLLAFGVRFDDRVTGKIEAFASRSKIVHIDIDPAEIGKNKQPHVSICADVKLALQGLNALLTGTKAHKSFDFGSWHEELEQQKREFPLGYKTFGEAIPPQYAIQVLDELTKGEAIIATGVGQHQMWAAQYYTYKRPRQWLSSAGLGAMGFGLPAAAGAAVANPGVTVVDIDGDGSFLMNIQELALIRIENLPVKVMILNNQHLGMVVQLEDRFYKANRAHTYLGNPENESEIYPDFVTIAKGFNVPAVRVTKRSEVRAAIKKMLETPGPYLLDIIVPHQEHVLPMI

Lolium rigidum [5] = test: Herbicidal activity against Lolium rigidum accession A14 assessed as fresh weight reduction applied at 4 times pre-emergence recommended rate relative to untreated control; assay type: functional; set-up: scale not given: the % may be the effect or the level left
Lolium rigidum [6] = test: Herbicidal activity against Lolium rigidum accession A06 assessed as emergence rate applied at 1 times pre-emergence recommended rate applied in pots where terbufos had been incorporated into the soil relative to untreated control; assay type: functional
Lolium rigidum [7] = test: Herbicidal activity against Lolium rigidum accession A14 assessed as fresh weight reduction applied at 1 times pre-emergence recommended rate relative to untreated control; assay type: functional; set-up: scale not given: the % may be the effect or the level left
Lolium rigidum [8] = test: Herbicidal activity against Lolium rigidum accession A15 assessed as emergence rate applied at 1 times pre-emergence recommended rate applied in pots where terbufos had been incorporated into the soil relative to untreated control; assay type: functional
Lolium rigidum [9] = test: Herbicidal activity against Lolium rigidum accession A08 assessed as fresh weight reduction applied at 4 times pre-emergence recommended rate relative to untreated control; assay type: functional; set-up: scale not given: the % may be the effect or the level left
Lolium rigidum [10] = test: Herbicidal activity against Lolium rigidum accession A09 assessed as emergence rate applied at 1 times pre-emergence recommended rate relative to untreated control; assay type: functional
Lolium rigidum [11] = test: Herbicidal activity against Lolium rigidum accession A04 assessed as emergence rate applied at 4 times pre-emergence recommended rate relative to untreated control; assay type: functional
Acetolactate synthase = Acetolactate synthase (Lolium rigidum, UniProt A7XBP7); test: Inhibition of acetolactate synthase Ala-197/Ala-197 mutant in Lolium rigidum accession A06 leaves extracts by acetolactate production assay; conditions: read-out: I50
Lolium rigidum [12] = test: Herbicidal activity against Lolium rigidum accession A05 assessed as emergence rate applied at 1 times pre-emergence recommended rate relative to untreated control; assay type: functional
Lolium rigidum [13] = test: Herbicidal activity against Lolium rigidum accession A12 assessed as emergence rate applied at 1 times pre-emergence recommended rate relative to untreated control; assay type: functional
Lolium rigidum [14] = test: Herbicidal activity against Lolium rigidum accession A09 assessed as fresh weight reduction applied at 4 times pre-emergence recommended rate relative to untreated control; assay type: functional; set-up: scale not given: the % may be the effect or the level left
Lolium rigidum [15] = test: Herbicidal activity against Lolium rigidum accession A04 assessed as fresh weight reduction applied at 1 times pre-emergence recommended rate relative to untreated control; assay type: functional; set-up: scale not given: the % may be the effect or the level left
Lolium rigidum [16] = test: Herbicidal activity against Lolium rigidum accession A13 assessed as emergence rate applied at 4 times pre-emergence recommended rate relative to untreated control; assay type: functional
Lolium rigidum [17] = test: Herbicidal activity against Lolium rigidum accession A01 assessed as fresh weight reduction applied at 1 times pre-emergence recommended rate relative to untreated control; assay type: functional; set-up: scale not given: the % may be the effect or the level left
Lolium rigidum [18] = test: Herbicidal activity against Lolium rigidum accession A15 assessed as emergence rate applied at 4 times pre-emergence recommended rate relative to untreated control; assay type: functional
Lolium rigidum [19] = test: Herbicidal activity against Lolium rigidum accession A04 assessed as fresh weight reduction applied at 1 times pre-emergence recommended rate applied in pots where terbufos had been incorporated into the soil relative to untreated control; assay type: functional; set-up: scale not given: the % may be the effect or the level left
Lolium rigidum [20] = test: Herbicidal activity against Lolium rigidum accession A05 assessed as emergence rate applied at 1 times pre-emergence recommended rate applied in pots where terbufos had been incorporated into the soil relative to untreated control; assay type: functional
Lolium rigidum [21] = test: Herbicidal activity against Lolium rigidum accession A11 assessed as fresh weight reduction applied at 1 times pre-emergence recommended rate applied in pots where terbufos had been incorporated into the soil relative to untreated control; assay type: functional; set-up: scale not given: the % may be the effect or the level left
Lolium rigidum [22] = test: Herbicidal activity against Lolium rigidum accession A07 assessed as fresh weight reduction applied at 1 times pre-emergence recommended rate relative to untreated control; assay type: functional; set-up: scale not given: the % may be the effect or the level left
Lolium rigidum [23] = test: Herbicidal activity against Lolium rigidum accession A11 assessed as emergence rate applied at 4 times pre-emergence recommended rate relative to untreated control; assay type: functional
Lolium rigidum [24] = test: Herbicidal activity against Lolium rigidum accession A04 assessed as emergence rate applied at 1 times pre-emergence recommended rate applied in pots where terbufos had been incorporated into the soil relative to untreated control; assay type: functional
Lolium rigidum [25] = test: Herbicidal activity against Lolium rigidum accession A10 assessed as emergence rate applied at 1 times pre-emergence recommended rate relative to untreated control; assay type: functional
Lolium rigidum [26] = test: Herbicidal activity against Lolium rigidum accession A01 assessed as fresh weight reduction applied at 4 times pre-emergence recommended rate relative to untreated control; assay type: functional; set-up: scale not given: the % may be the effect or the level left
[27] = target: T1, Acetolactate synthase (Lolium rigidum); test: Resistance index, ratio of I50 for acetolactate synthase […]/Leu-197 mutant in Lolium rigidum accession A18 leaves extracts to I50 for acetolactate synthase in Lolium rigidum accession A01 leaves extracts
Lolium rigidum [28] = test: Herbicidal activity against Lolium rigidum accession A03 assessed as fresh weight reduction applied at 1 times pre-emergence recommended rate relative to untreated control; assay type: functional; set-up: scale not given: the % may be the effect or the level left
Lolium rigidum [29] = test: Herbicidal activity against Lolium rigidum accession A04 assessed as fresh weight reduction applied at 4 times pre-emergence recommended rate relative to untreated control; assay type: functional; set-up: scale not given: the % may be the effect or the level left
Lolium rigidum [30] = test: Herbicidal activity against Lolium rigidum accession A10 assessed as fresh weight reduction applied at 4 times pre-emergence recommended rate relative to untreated control; assay type: functional; set-up: scale not given: the % may be the effect or the level left
[31] = target: T1, Acetolactate synthase (Lolium rigidum); test: Resistance index, ratio of I50 for acetolactate synthase Ala-197/Ala-197 mutant in Lolium rigidum accession A20 leaves extracts to I50 for acetolactate synthase in Lolium rigidum accession A01 leaves extracts
Lolium rigidum [32] = test: Herbicidal activity against Lolium rigidum accession A07 assessed as emergence rate applied at 1 times pre-emergence recommended rate relative to untreated control; assay type: functional
Lolium rigidum [33] = test: Herbicidal activity against Lolium rigidum accession A14 assessed as emergence rate applied at 1 times pre-emergence recommended rate relative to untreated control; assay type: functional
Lolium rigidum [34] = test: Herbicidal activity against Lolium rigidum accession A08 assessed as fresh weight reduction applied at 1 times pre-emergence recommended rate relative to untreated control; assay type: functional; set-up: scale not given: the % may be the effect or the level left

Molecule `COc1nc(C)nc(NC(=O)NS(=O)(=O)c2ccccc2Cl)n1` [CHLORSULFURON] has an Activity (Lolium rigidum [1]) of 100%, an Activity (Lolium rigidum [2]) of 45% and an Activity (Lolium rigidum [3]) of 84%. For the same molecule, the Ratio [4] was 61, the Activity (Lolium rigidum [5]) was 96% and the Activity (Lolium rigidum [6]) was 92%. The Activity (Lolium rigidum [7]) was 94%, the Activity (Lolium rigidum [8]) was 0% and the Activity (Lolium rigidum [9]) was 46%. It also gave an Activity (Lolium rigidum [10]) of 44%, an Activity (Lolium rigidum [11]) of 1% and an IC50 (Acetolactate synthase) of 14.1 µM. It also gave an Activity (Lolium rigidum [12]) of 97%, an Activity (Lolium rigidum [13]) of 2% and an Activity (Lolium rigidum [14]) of 95%. It also gave an Activity (Lolium rigidum [15]) of 96%, an Activity (Lolium rigidum [16]) of 1% and an Activity (Lolium rigidum [17]) of 98%. The Activity (Lolium rigidum [18]) was 2%, the Activity (Lolium rigidum [19]) was 96% and the Activity (Lolium rigidum [20]) was 95%. The Activity (Lolium rigidum [21]) was 97%, the Activity (Lolium rigidum [22]) was 0% and the Activity (Lolium rigidum [23]) was 1%. The Activity (Lolium rigidum [24]) was 2%, the Activity (Lolium rigidum [25]) was 68% and the Activity (Lolium rigidum [26]) was 99%. It also gave a Ratio [27] of 54, an Activity (Lolium rigidum [28]) of 95% and an Activity (Lolium rigidum [29]) of 95%. For the same molecule, the Activity (Lolium rigidum [30]) was 100%, the Ratio [31] was 36 and the Activity (Lolium rigidum [32]) was 89%. The Activity (Lolium rigidum [33]) was 1% and the Activity (Lolium rigidum [34]) was 9%.
